From EP4786454A1, “HETEROARYL DERIVATIVE AND USE THEREOF” (priority 2023, dated 2025)

Tests used:
MDR1-MDCK I cell line = experiment: Permeability evaluation, bidirectional transport (P-gp substrate); format: in vitro ADME; conditions: 2.00 µM, 90 minutes
Procedure: The purpose of this study was to evaluate and study the P-gp substrate of the compounds in MDR1 […] cells.
Transport assay: The test sample, nadolol, and metoprolol were administered at a concentration of 2.00 µM, and digoxin was administered at a concentration of 10.0 µM. The administration was performed bidirectionally (A-B and B-A directions), with two replicates for each administration concentration. The dosing solution, receiving solution, and transport buffer were pre-incubated in a 37.0 °C water bath for 30 minutes. The cell layer was rinsed twice with transport buffer. The dosing solution and receiving solution were added to the corresponding wells of the cell plate, respectively (75.0 µL to each apical well and 250 µL to each basolateral well, respectively). After the addition of samples, the cell plate was incubated in an incubator at 37.0°C, 5.0% CO2 and saturated humidity for 90 minutes. The initial dosing solution was used as the T0 sample. After 90 minutes of incubation, samples were collected from each well and labeled as A-B receiver, B-A receiver, A-B donor, and B-A donor, respectively. After the sample collection, all samples were mixed with an appropriate volume of transport buffer and stop solution. All samples were vortexed, and then centrifuged at 20.0 °C and 3220 × g for 10 minutes. An appropriate volume of the supernatant was transferred to a sample analysis plate. After sealing the plate, the samples were stored at 2.0 to 8.0 °C if not analyzed immediately. Analysis was performed using LC-MS/MS.
Cell membrane integrity assay: After the transport assay, the integrity of the MDR1-MDCK II cell layer was assayed by the Lucifer Yellow Rejection Assay. The remaining solution in the apical and basolateral wells was removed. 75.0 µL of transport buffer containing 100 µM Lucifer Yellow was added to the apical well, and 250 µL of transport buffer was added to the basolateral well, respectively. The cell plate was incubated in a cell culture incubator at 37 °C, 5% CO2 and saturated humidity for 30 minutes. Then, 20.0 µL of sample was taken from the apical end and mixed with 60.0 µL of transport buffer, and 80.0 µL of sample was taken from the basolateral end. The relative fluorescence unit (RFU) was measured at 425/528 nm (excitation/emission) using a microplate reader.
In this study, the sample analysis of the compounds and control compounds of nadolol, metoprolol, and digoxin was performed using LC-MS/MS. The retention time of the analytes and internal standards, chromatogram acquisition, and chromatogram integration were processed using the software Analyst (Sciex, Framingham, MA, USA). […] Semi-quantitative determination was performed using the ratio of the peak area of analyte to the peak area of internal standard.
The apparent permeability coefficient (Papp, cm/s), efflux ratio (ER), and recovery rate (%Solution Recovery) were calculated using the following formulas. Papp = (VR)/(Area × Time) × ([drug]receiver)/([drug]initial, donor) = (VR)/(Area × Time) × (CR)/(C0) [formula] Efflux Ratio = (Papp (B−A))/(Papp (A−B)) [formula] %Solution Recovery = (CR × VR + CD × VD)/(C0 × VD) × 100 [formula]
VR is the volume of the receiver solution (0.0750 mL for side A, and 0.250 mL for side B); Area is the surface area of the cell monolayer (0.143 cm^2); Time is the incubation time (5400 s); C0 is the initial peak area ratio of the test compound or the control compound at the donor; VD is the volume of the donor (0.0750 mL for side A, and 0.250 mL for side B); CD and CR are the peak area ratios of the test compound or the control compound at the donor and the receiver, respectively. The transmittance of Lucifer Yellow (%Lucifer Yellow) was calculated using the following formula: %Lucifer Yellow = (VBasolateral × RFUBasolateral)/(VApical × RFUApical + VBasolateral × RFUBasolateral) × 100 [formula]
RFUApical and RFUBasolateral are the relative fluorescence units of Lucifer Yellow at the apical and basolateral ends, respectively. […]

[1] = Plasma protein binding rate, equilibrium dialysis (mouse plasma); format: in vitro ADME, CD-1 mice; conditions: m (CD-1 mouse plasma), dialysis 4 hours at 37 °C, read-out: Unbound PPB%
Procedure: The protein binding rates of the compounds in the plasma of CD-1 mice, Sprague-Dawley rats, beagle dogs, cynomolgus monkeys, and human were determined using equilibrium dialysis method.
Commercially available plasma, dual-layer dialysis membrane, and equilibrium dialysis device.
The dual-layer dialysis membrane was soaked in ultrapure water for about 1 hour, removed and then divided into two parts. It was then soaked in an ethanol:water (20:80, v:v) solution for 20 minutes or placed at 2 to 8 °C, and it was valid for 1 month. Before starting the assay, the dialysis membrane was rinsed twice with ultrapure water and then soaked in ultrapure water for another 20 minutes for later use.
On the day of assay, the frozen plasma of CD-1 mice, Sprague-Dawley rats, beagle dogs, cynomolgus monkeys, and human was thawed in running cold tap water. After the plasma was completely thawed, the plasma was centrifuged at 3220×g for 5 minutes, and the suspended substances and precipitates in it were removed. The pH of the plasma was determined. The plasma with a pH in the range of 7.4 ± 0.1 was directly used, or the plasma with a pH in the range of 7.4 ± 0.1 after an adjustment with 1% phosphoric acid or 1M sodium hydroxide was used.
Preparation process of plasma samples: 597 µL of blank plasma from each of the above five species was taken, respectively. 3 µL of a compound or warfarin working solution was added, and the mixture was mixed thoroughly to give a plasma sample with a compound concentration of 2 µM and a warfarin concentration of 2 µM (n=1). The concentration of the organic phase DMSO was 0.5%. The sample was thoroughly mixed before proceeding to the next step.
Preparation process of T0 samples: 50 µL of a plasma sample containing the compound and warfarin was transferred to a sample receiving plate (n=3), and 50 µL of blank PBS was immediately added. Then, 500 µL of stop solution was added to the T0 sample of the compound and warfarin, and the mixture was stored at 2 to 8 °C, waiting to be processed later together with other dialysis-processed samples.
Dialysis process of plasma samples: 100 µL of a compound (2 µM) and warfarin (2 µM) plasma sample was added to the donor of each dialysis well (n=3), and 100 µL of blank PBS was added to the corresponding receiver of the dialysis well. The dialysis plate was placed in a 5% CO2 incubator, and incubated at 37 °C with shaking at approximately 100 rpm for 4 hours.
After the dialysis was completed, 50 µL of dialysis-processed PBS sample and dialysis-processed plasma sample (n=3) were transferred to a new 96-well plate (sample receiving plate). The corresponding volume of the corresponding blank plasma or PBS was added to the sample to make the final volume of each sample well 100 µL, with a plasma to PBS volume ratio of 1:1. All the samples were analyzed by LC-MS/MS after protein precipitation.
The formulas for calculating the unbound fraction (%Unbound), bound fraction (%Bound) and recovery fraction (%Recovery) of a compound are as follows: %Unbound = 100 ×F / T %Bound = 100 - %Unbound %Recovery = 100 ×(F + T)/ T0 wherein F is the concentration of the compound at the receiver of dialysis; T is the concentration of the compound at the supply end of dialysis; and T0 is the concentration of the compound in the plasma at time zero.

Row | SMILES | HMDR1 Papp A to B (MDR1-MDCK I cell line) | HMDR1 Papp B to A (MDR1-MDCK I cell line) | fraction unbound at 4 h, 2 µM [1]
1 | CC(C)(C)CC(=O)Nc1nc2c(F)cc(C#N)cn2c1C12CC(C1)C2 [Compound 5] | 12.4 10^-6 cm/s | 42.4 10^-6 cm/s | 0.141
2 | CC(C)(C)CC(=O)Nc1nc2c(F)cc(C#N)cn2c1C1=CCCC1 [Compound 3] | 7.52 10^-6 cm/s | 31.2 10^-6 cm/s | 0.087
3 | CC(C)(C)CC(=O)Nc1nc2c(F)cc(C#N)cn2c1-c1ccc(OC(F)(F)F)cc1 [Compound 1] | 3.64 10^-6 cm/s | 18.3 10^-6 cm/s | 0.047
